Results as given in patent US20100076489A1, “WOUND CLOSURE MATERIAL” (priority 2007, published 2010).

Assay: Saturation concentration of paclitaxel in various release media (HPLC)
Assay type: physicochemical
Protocol: Paclitaxel concentrations were then measured with a Waters 2965 series HPLC (commercially available from Waters Corporation). A 20 μL from each sample was injected into a Phenomenex ODS-2 INERTSIL (5.0 μm, 150 mm×4.6, from Phenomenex) which was maintained at about 30° C. The sample runs were conducted for about 10 minutes, with a flow rate at 0.8 mL/minute. The mobile phase included about 55% acetonitrile and 45% water (v/v). The paclitaxel was detected at a wavelength of about 230 nm with a photodiode array detector (Waters series 2996, commercially available from Waters Corporation).
A release medium, including phosphate buffered saline (PBS) with about 0.1% of a polyethoxylated fatty acid ester of sorbitan (also referred to as polysorbates, commercially available as TWEEN™ 80) (w/v) and about 0.5% sodium dodecylsulfate (SDS) (w/v) was prepared as follows. About 100 mL of 10×PBS concentrate was added to a 1 liter volumetric flask. The flask was filled to the line with Milli-Q water and stirred for about 15 minutes. To the solution, about 1 mL of TWEEN™ 80 was added and stirred with a magnetic stir bar until the TWEEN™ 80 was completely dissolved. Approximately 5 grams of sodium dodecylsulfate was then added and the solution was stirred for about 45 minutes. The pH of the solution was tested and found to be about 7.3.
The saturation concentration of paclitaxel in various release media was determined using the previously mentioned high pressure liquid chromatography method. In addition to the release media including PBS with about 0.1% TWEEN™ 80 and 0.5% Sodium Dodecyl Sulfate described above, other media were similarly tested. The additional media included PBS with about 0.1% by weight PLURAFAC® surfactant (commercially available from BASF), PBS with about 0.1% by weight TWEEN™ 80, and PBS with about 0.8% by weight Dimethyl-b-Cyclodextrin. A summary of the results is provided below in Table 1.

CC(=O)O[C@H]1C(=O)[C@@]2(C)[C@H]([C@H](OC(=O)c3ccccc3)[C@]3(O)C[C@H](OC(=O)[C@H](O)[C@@H](NC(=O)c4ccccc4)c4ccccc4)C(C)=C1C3(C)C)[C@]1(OC(C)=O)CO[C@@H]1C[C@@H]2O [Paclitaxel, paclitaxel]
Saturation concentration of Paclitaxel (Media: PBS w/0.1% Plurafac): 0.1 ± .01 µg/mL | Saturation concentration of Paclitaxel (Media: PBS w/0.1% TWEEN 80): 2.2 ± 0.2 µg/mL | Saturation concentration of Paclitaxel (Media: PBS w/0.1% TWEEN 80 and 0.5% Sodium Dodecyl Sulfate): 52.8 ± 6.4 µg/mL | Saturation concentration of Paclitaxel (Media: PBS w/0.8% Dimethyl-b-Cyclodextrin): 7.3 µg/mL
